According to patent US20090312316A1, “NOVEL COMPOUNDS” (priority 2006, published 2009):

What was measured:
[1] = test system: endothelial cells; conditions: with respect to borrelidin; WO 01/09113; cited from earlier work
[2] = test system: panel of 12 human tumour cell lines; test: monolayer proliferation assay (modified propidium iodide assay) in a panel of 12 human tumour cell lines; format: cell-based; conditions: for Mean % T/C at 1 μM / Mean % T/C at 10 μM: mean growth across 12 cell-line panel, treated/control x 100, 4 days exposure; for Mean percentage Inhibition of cancer cell lines at 1 uM: 100 minus mean %T/C at 1 uM of Table III
Experimental: In vitro evaluation of compounds for anticancer activity in a panel of 12 human tumour cell lines in a monolayer proliferation assay was carried out at the Oncotest Testing Facility, Institute for Experimental Oncology, Oncotest GmbH, Freiburg.
The Oncotest cell lines were established from human tumor xenografts as described by Roth et al., (1999). The origin of the donor xenografts was described by Fiebig et al., (1999). Other cell lines were either obtained from the NCI (H460, SF-268, OVCAR-3, DU145, MDA-MB-231, MDA-MB-468) or purchased from DSMZ, Braunschweig, Germany (LNCAP).
All cell lines, unless otherwise specified, were grown at 37° C. in a humidified atmosphere (95% air, 5% CO2) in a ‘ready-mix’ medium containing RPMI 1640 medium, 10% fetal calf serum, and 0.1 mg/mL gentamicin (PAA, Cölbe, Germany).
A modified propidium iodide assay was used to assess the effects of the test compound(s) on the growth of human tumour cell lines (Dengler et al., (1995)).
Briefly, cells were harvested from exponential phase cultures by trypsinization, counted and plated in 96 well flat-bottomed microtitre plates at a cell density dependent on the cell line (5-10.000 viable cells/well). After 24 h recovery to allow the cells to resume exponential growth, 0.010 mL of culture medium (6 control wells per plate) or culture medium containing macbecin were added to the wells. Each concentration was plated in triplicate. Compounds were applied in two concentrations (0.001 mM and 0.01 mM). Following 4 days of continuous exposure, cell culture medium with or without test compound was replaced by 0.2 mL of an aqueous propidium iodide (PI) solution (7 mg/L). To measure the proportion of living cells, cells were permeabilized by freezing the plates. After thawing the plates, fluorescence was measured using the Cytofluor 4000 microplate reader (excitation 530 nm, emission 620 nm), giving a direct relationship to the total number of viable cells.
The mean growth inhibition across the 12 cell-line panel was expressed as treated/control×100 (% T/C).
In vitro evaluation of the test compounds for anticancer activity in a panel of human tumour cell lines in a monolayer proliferation assay was carried out as described in the general methods using a modified propidium iodide assay. This screen may be used as a model for the toxic effect of compounds in inhibiting general cell growth.

[3] = test system: Lewis lung adenocarcinoma; conditions: rats; intraperitoneal and per os administration at subtoxic doses; cited from earlier work
[4] = test system: mouse colon adenocarcinoma cells; conditions: subtoxic dose; cited from earlier work
[5] = test system: CAM vasculature; test: Chick chorioallantoic membrane (CAM) assay of anti-angiogenic activity; format: in vivo; conditions: for Ratio of inhibition of CAM vasculature at 25 ng/CAM to in vitro cancer cell inhibition at 1 uM: 25 ng/CAM versus 1 uM in cancer cell panel; for Mean blood vessel density score: angiogenesis score up to 32 (highest density), 0 = no angiogenesis, mean of ten experiments; for anti-angiogenic therapeutic index (ratio of anti-angiogenesis to general cell inhibition), in words: as compared to 1 and 6
Experimental: Fresh fertile eggs were be incubated for 3 days in a standard egg incubator at 37° C. for 3 days. On Day 3, eggs were cracked under sterile conditions and embryos were placed into 20×100 mm plastic plates and cultivated at 37° C. in an embryo incubator with a water reservoir on the bottom shelf. Air was continuously bubbled into the water reservoir using a small pump so that the humidity in the incubator was kept constant. […] Embryos were returned to the incubator after addition of test material. Control embryos received 10 μL of vehicle alone. […] The blood vessel density was semi-quantitatively measured using an angiogenesis scoring system, in that exponential numbers 1 to 32 were used to indicate number of blood vessels present at the treatment sites on the CAM. Number 32 represented the highest density and 0 represented no angiogenesis. The percent of inhibition at each dosing site was calculated using the score recorded for that site divided by the mean score obtained from the appropriate control samples for each individual experiment. The percent of inhibition for each dose of a given compound was calculated by pooling all results obtained for that dose.

[6] = Cleavage studies in rat blood to give the parent acid 6; format: in vitro ADME; conditions: rat blood (EDTA), 0.01 mg/mL, 37° C.; for cleavage to give the parent compound 6: up to 180 minutes
Experimental: The sample was diluted to a volume of 1 mL by addition of 0.1 M aqueous KH2PO4. […] An Oasis MAX cartridge (1 cc/30 mg) was conditioned with 1 mL MeOH and 1 mL water successively. The supernatant was transferred to the conditioned cartridge at a flow rate of 1-2 mL/min. […] The extracts were transferred to autosampler vials and immediately analysed by LC/MS. […] LCMS was performed on a Bruker Daltonics Esquire 3000+ mass spectrometer equipped with an electrospray source coupled to the HPLC. […] Injection volume: 0.05 mL. HPLC was performed on a Waters Symmetry C8 3.5 micron column, 50 mm×2.1 mm, running a mobile phase of: mobile phase A: 0.1% formic acid in water; mobile phase B: 0.1% Formic acid in acetonitrile; flow rate: 1 mL/minute. […] Fragmentation of this molecular species results in a spectrum with intense ions at m/z 271 and 412. The daughter ion at m/z 412 can be ideally selected for quantification.

Molecule | inhibition of cell growth at 1 μM (in words) [2] | Mean % T/C at 1 μM [2] [% T/C] | Mean % T/C at 10 μM [2] [% T/C] | also measured
C[C@@H]1C[C@H](C)C[C@H](C)[C@@H](O)CC(=O)O[C@H]([C@@H]2CCC[C@H]2C(=O)NCCN2CCOCC2)C/C=C/C=C(/C#N)[C@H](O)[C@@H](C)C1 [borrelidin-morpholinoethyl amide] | – | – | – | selectivity index for capillary formation inhibitory activity versus cell proliferation [1]: 6 fold
CC1CC(C)CC(C)C(O)C(C#N)=CC=CCC(C2CCC2C(=O)NCc2ccncc2)OC(=O)CC(O)C(C)C1 (stereo not drawn) [Compound 10, 17-des(cyclopentane-2-carboxylic acid)-17-(cyclobutane-2-carboxylic acid)borrelidin (4-aminomethyl)pyridine amide] | little or no inhibition of cell growth | 104 | 57 | –
CC1CC(C)CC(C)C(O)C(C#N)=CC=CCC(C2CCCC2C(=O)OCCc2ccccn2)OC(=O)CC(O)C(C)C1 (stereo not drawn) [borrelidin-(2-pyridyl)-ethyl ester] | – | – | – | selectivity index for capillary formation inhibitory activity versus cell proliferation [1]: 7.5 fold
CC1CC(C)CC(C)C(O)C(C#N)=CC=CCC(C2CCC2C(=O)NCc2ccccn2)OC(=O)CC(O)C(C)C1 (stereo not drawn) [Compound 12, 17-des(cyclopentane-2-carboxylic acid)-17-(cyclobutane-2-carboxylic acid)borrelidin (2-aminomethyl)pyridine amide] | little or no inhibition of cell growth | 87 | 15 | –
CC1CC(C)CC(C)C(O)CC(=O)OC(C2CCCC2C(=O)NCc2cccnc2)C(C#N)=CC=CCC(O)C(C)C1 (stereo not drawn) [borrelidin-(3-picolylamide) derivative, borrelidin-(3-picolylamide)] | – | – | – | increase of micrometastases [3]: inhibit very considerably; metastasis-forming ability of mouse colon adenocarcinoma cells transplanted into mouse spleen [4]: considerably decreased
C[C@@H]1C[C@H](C)C[C@H](C)[C@@H](O)CC(=O)O[C@H]([C@@H]2CCC[C@H]2C(=O)OCCN2CCOCC2)C/C=C/C=C(/C#N)[C@H](O)[C@@H](C)C1 [borrelidin-morpholinoethyl ester] | – | – | – | selectivity index for capillary formation inhibitory activity versus cell proliferation [1]: 60 fold
17-des(cyclopentane-2-carboxylic acid)-17-(cyclobutane-2-carboxylic acid)borrelidin (2-(2-hydroxyethyl)pyridine ester [Compound 8] | – | 40 | 6 | –
17-des(cyclopentane-2-carboxylic acid)-17-(cyclobutane-2-carboxylic acid)borrelidin (4-(2-hydroxyethyl))morpholine ester [Compound 7] | – | 36 | 8 | Mean percentage Inhibition of cancer cell lines at 1 uM [2]: 64%; Mean percentage inhibition of CAM vasculature at 25 ng/CAM [5]: 54%; Ratio of inhibition of CAM vasculature at 25 ng/CAM to in vitro cancer cell inhibition at 1 uM [5]: 0.84; Mean blood vessel density score [5]: 7.8; anti-angiogenic therapeutic index (ratio of anti-angiogenesis to general cell inhibition), in words [5]: improved; half-life for the cleavage to parent compound 6 [6]: ~12 min; cleavage to give the parent compound 6 [6]: rapidly cleaved
CC1CC(C)CC(C)C(O)C(C#N)=CC=CCC(C2CCC2C(=O)NCCN2CCOCC2)OC(=O)CC(O)C(C)C1 (stereo not drawn) [Compound 9, 17-des(cyclopentane-2-carboxylic acid)-17-(cyclobutane-2-carboxylic acid)borrelidin (4-(2-aminoethyl))morpholine amide] | little or no inhibition of cell growth | 101 | 43 | Mean percentage Inhibition of cancer cell lines at 1 uM [2]: 0%; Mean percentage inhibition of CAM vasculature at 25 ng/CAM [5]: 60%; Ratio of inhibition of CAM vasculature at 25 ng/CAM to in vitro cancer cell inhibition at 1 uM [5]: >60; Mean blood vessel density score [5]: 6.8; anti-angiogenic therapeutic index (ratio of anti-angiogenesis to general cell inhibition), in words [5]: especially good; cleavage to give the parent compound 6 [6]: did not cleave
CC1CC(C)CC(C)C(O)C(C#N)=CC=CCC(C2CCC2C(=O)NCCc2cccnc2)OC(=O)CC(O)C(C)C1 (stereo not drawn) [Compound 13, 17-des(cyclopentane-2-carboxylic acid)-17-(cyclobutane-2-carboxylic acid)borrelidin (3-(2-aminoethyl))pyridine amide] | little or no inhibition of cell growth | 97 | 37 | cleavage to give the parent compound 6 [6]: did not cleave
borrelidin-amide | – | – | – | selectivity index for capillary formation inhibitory activity versus cell proliferation [1]: 37 fold
CC1CC(C)CC(C)C(O)C(C#N)=CC=CCC(C2CCC2C(=O)NCc2cccnc2)OC(=O)CC(O)C(C)C1 (stereo not drawn) [Compound 11, 17-des(cyclopentane-2-carboxylic acid)-17-(cyclobutane-2-carboxylic acid)borrelidin (3-aminomethyl)pyridine amide] | little or no inhibition of cell growth | 97 | 20 | –
CC1CC(C)CC(C)C(O)C(C#N)=CC=CCC(C2CCC2C(N)=O)OC(=O)CC(O)C(C)C1 (stereo not drawn) [Compound 14, 17-des(cyclopentane-2-carboxylic acid)-17-(cyclobutane-2-carboxylic acid)borrelidin amide] | little or no inhibition of cell growth | 92 | 26 | –
C[C@@H]1C[C@H](C)C[C@H](C)[C@@H](O)CC(=O)O[C@@H](C2CC[C@H]2C(=O)O)C/C=C/C=C(/C#N)[C@H](O)[C@@H](C)C1 (stereo partly drawn) [Compound 6, 17-des(cyclopentane-2-carboxylic acid)-17-(cyclobutane-2-carboxylic acid)borrelidin] | – | 33 | 8 | inhibition at 1 µM ([2]; Homo sapiens, read-out: Mean percentage Inhibition of cancer cell lines at 1 uM): 67%; Mean percentage inhibition of CAM vasculature at 25 ng/CAM [5]: 51%; Ratio of inhibition of CAM vasculature at 25 ng/CAM to in vitro cancer cell inhibition at 1 uM [5]: 0.76; Mean blood vessel density score [5]: 8.2
